Measured values reported in patent US10967023B2, “Preparation of a chinese medicinal composition including ginseng, ginkgo leaf and stigma croci” (priority 2014, dated 2021).

What was measured:
[1] = system: ADP induced platelet aggregation of rats; assay: Platelet aggregation inhibition test (ADP induced, PRP of dosed rats); type: in vivo, SD rats; conditions: ADP 5 μmol/L
Procedure: (§1) The same volume of saline was given to the Blank control group. The rats were administered once a day for 7 days.
Platelet aggregation inhibition test: 1 h after 7 days of administration to the rats of the groups, the rats were hypnotized according to the above method, a tube was inserted into the common carotid artery to collect blood, the blood was added 3.8% sodium citrate in a ratio of 1:9 to become anticoagulant, when it was centrifuged for 5 minutes at 500 rpm, the upper portion of the plasma was taken to be the platelet-rich plasma (PRP), the remaining part was centrifuged again for 15 minutes at 3,500 rpm, the supernatant was platelet poor plasma (the PPP), the number of platelet of PRP was counted with platelet counting instrument, the number of platelet of PRP was adjusted with PPP to about […]. The temperature of the sample tube was kept at 37° C. for 3 minutes, then 5 μL ADP was added (final concentration 5 μmol/L), stirring speed of the stirrer was 500 r/min, the space between the rows of the movement of the recording pen was recorded after adding, and the aggregation rate was calculated according to the following formula: Aggregation rate(%)=the itinerary of adding ADP×100%/0˜100% of the itinerary

thrombosis of rats = assay: Artery-vein shunt thrombosis in rats (thrombus formation in vivo); parameters: species or system SD rats; conditions: compositions 3 g/kg, aspirin 0.0044 g/kg
Procedure: as §1
Experiments of thrombus formation, in vivo: 1 h after 7 days of administration, the rats of the groups were hypnotized through intraperitoneal injection with 0.8% sodium pentobarbital, with a dose of 40 mg/kg referring to the artery-vein shunt thrombosis method [Zhang Jun Tian. Modern pharmacology experimental methods. Beijing: Beijing Medical University Press, 1998; 1216-1217], right common carotid artery and left external jugular vein were separated. Three sections of polyethylene plastic pipe were taken, the diameter of the middle section was 2 mm, the length was about 8.5 cm, the diameter of the two plastic pipe of the two ends were 1.5 mm, the length were 10 cm respectively. A No 4 operation silk thread that was weighed previously with a length of about 7 cm was placed in the plastic pipe in the middle section, wherein one end of the thread with the length of 0.5 cm was exposed to the pipe to fix the position, and a silk thread with a length of 6.5 cm was kept in the pipe, the polyethylene plastic pipe was filled with heparin solution, one end of the plastic tube was inserted into the left external jugular vein, the other end of the plastic tube was inserted into the right common carotid artery, then the bloodstream was opened immediately. […]

[2] = system: reserpine induced acquired memory disorder model mice; assay: Reserpine induced acquired memory disorder model mice, jumping platform test; type: in vivo, ICR mice; conditions: reserpine 0.5 mg/kg mice; compositions 4 g/kg, Huperzine 0.00008 g/kg, Tanakan 0.03 g/kg, 15 days
Procedure: (§2) Experimental grouping was the same as that of test example 5.
The animals were intragastric administered once a day at a dose of 20 mL/kg, distilled water was given to the blank control group and the model group, one time a day, lasted for 15 days. After the administration on the 14th day, saline was given immediately to the mice of the blank control group through back and neck subcutaneous injection in a volume of 10 ml/kg, the rest animals were given reserpine hydrochloride (0.5 mg/kg) through back and neck subcutaneous injection. 60 minutes after the injection, the mice were placed on the jumping program automatic controller, to adapt for 3 minutes, then power on, the mice were stimulated by electric shock for 5 times, when the mice were stimulated, they jump to the diving platform to avoid electric shock, trained 5 minutes to obtain memory. 60 minutes after the administration on the 15th day, the animals were placed on the jumping program automatic controller, the number of errors and the incubation period of mice within 5 minutes were determined. The results were analyzed statistically (t test).

[3] = system: sodium nitrite induced consolidate memory disorder mice; assay: Sodium nitrite induced consolidate memory disorder model mice, jumping platform test; type: in vivo, ICR mice; conditions: sodium nitrite 120 mg/kg mice; compositions 4 g/kg, Huperzine 0.00008 g/kg, Tanakan 0.03 g/kg, 15 days
Procedure: as §2
The animals were intragastric administered once a day at a dose of 20 mL/kg, distilled water was given to the animals of blank control group and model group, one time a day, lasted for 15 days. 60 minutes after the administration on the 14th day, the mice were placed on the jumping program automatic controller, to train for 5 minutes, and the mice were stimulated by electric shock for 5 times. After the treatment, saline was given immediately to the mice of comparative group through back and neck subcutaneous injection in a volume of 10 ml/kg, sodium nitrite (120 mg/kg) were injected to the rest of the animals. 60 minutes after the administration on the 15th day, the animals of the groups were placed on the jumping program automatic controller, the number of errors and the incubation period of mice within 5 minutes were determined. The results were analyzed statistically (t test).

[4] = system: scopolamine hydrobromide induced acquired memory disorder model mice; assay: Scopolamine hydrobromide induced acquired memory disorder model mice, jumping platform test; type: in vivo, ICR mice; conditions: scopolamine 6 mg/kg mice; compositions 4 g/kg, Huperzine 0.00008 g/kg, Tanakan 0.03 g/kg, 15 days
Procedure: The animals were intragastric administered once a day at a dose of 20 mL/kg, distilled water was given to blank control group and model group, one time a day, lasted for 15 days, 50 minutes after the administration on the 14th day, saline was given to the mice of blank control group through intraperitoneal injection in a volume of 10 ml/kg, the rest animals were given scopolamine through injection (6 mg/kg). 10 minutes later, the mice were placed on the jumping program automatic controller, to adapt for 3 minutes, then power on, the mice were stimulated by electric shock for 5 times, when the mice were stimulated, they jump to the diving platform to avoid electric shock, trained 5 minutes to obtain memory. 60 minutes after the administration on the 15th day, the animals were placed on the jumping program automatic controller, the number of times that the mice left the jump platform and received electric shock and the time of occurrence (the incubation period) were determined (number of errors). The results were analyzed statistically (t test).

[5] = system: ischemic reperfusion and D-galactose induced learning and memory impairment mice; assay: MORRIS water maze in mice with ischemic reperfusion and subcutaneous D-galactose induced learning and memory impairment; type: in vivo, ICR mice; conditions: 8 weeks
Procedure: (§3) The mice were anaesthetized with chloral hydrate, incisions were made in the necks, ischemia and reperfusion surgery was applied: bilateral common carotid arteries were separated, were clipped by bulldog clamp for 20 minutes, loosened for 2 minutes, then were clipped again for 20 minutes then loosened, at the same time, the tails of the mice were cut, 0.5 mL blood was collected, repeated cerebral ischemia-reperfusion injury was formed, sutured the wounds of the rats then fed them in cages. 7 days after the operation, D-galactose (100 mg/kg, 10 mL/kg) was given to the mice through subcutaneous injection on the back, and simultaneously, the mice were intragastric administered (20 mL/kg) once a day, lasted for 8 weeks; for the sham group, common carotid arteries were separated without clipping, the same volume of saline was injected through subcutaneous injection on the back; for D-galactose group, common carotid arteries were separated without clipping, D-galactose (100 mg/kg, 10 mL/kg) was injected through subcutaneous injection on the back; the ischemia reperfusion group was received an ischemia reperfusion operation, the same volume of saline was injected through subcutaneous injection on the back. The sham group, complex model group, D-galactose group were given gavages of distilled water of the same volume.
(§4) 8 weeks after the administration, the mice were trained for 3 days in the MRRIS water maze, two times a day, the learning and memory behavior were determined on the 4th day, on the 5th day, the heads were cut to take the brains, the brains were formulated into 10% homogenates with saline, the activities of AchE, SOD, GSH-Px, the contents of biochemical indicators such as MDA, NO in the brain tissues were determined (colorimetry). The results were analyzed statistically (t test)

SOD, MDA of brain tissue = assay: Activity of SOD and content of MDA in the brains of VaD rats; type: in vivo, SD rats; conditions: 2 months of administration, compositions 3 g/kg, Huperzine 0.00006 g/kg, Tanakan 0.02 g/kg
Procedure: (§5) The sham group and the model group were given gavages of distilled water of the same volume. 2 months, 3 months after the models were created (1 month and 2 months after the administration), the time of the duration of MORRIS water maze were measured. After the last measurement, blood was taken from abdomens aorta, the brain was taken quickly, and the left hemisphere was solidified with liquid nitrogen. In ice bath, with 0.15M HCLO4 homogenates (1 ml was added for 100 mg brain weight) 14000×g 4° C., centrifuged for 20 min, the supernatant was taken, filtered with 0.22 μm membrane, 10 μl was fed into the auto sampler, the content of Ach was determined using HPLC; right hemisphere, 4 for each group, were solidified with formalin, dehydrated, embedded, sliced, HE dyed for pathological examination, homogenates of six brain tissue, AchE, SOD activity and MDA content (colorimetric method) were measured; Indicators such as neuropeptide Y, β-EP in plasma were determined (RIA). The results were analyzed statistically (t test).

plasma NPY, β-EP = assay: Plasma NPY, β-EP of VaD rats (RIA); type: in vivo, SD rats; conditions: 2 months of administration, compositions 3 g/kg, Huperzine 0.00006 g/kg, Tanakan 0.02 g/kg
Procedure: as §5

[6] = system: hippocampal pyramidal cell; assay: Pathological examination of hippocampus of VaD rats (HE); type: in vivo, SD rats; conditions: 2 months of administration
Procedure: as §5

[7] = system: SOD, GSH-Px, MDA, NO of brain tissue; assay: Activities of SOD, GSH-Px and contents of MDA, NO of brain tissue (ischemia-reperfusion + D-galactose mice); type: in vivo, ICR mice; conditions: 8 weeks, compositions 4 g/kg, Huperzine 0.00008 g/kg, Tanakan 0.03 g/kg
Procedure: as §3, §4

[8] = system: Ach in brains of VaD rats; assay: Content of Ach in brains of VaD rats (HPLC); type: in vivo, SD rats; conditions: 2 months of administration, compositions 3 g/kg, Huperzine 0.00006 g/kg, Tanakan 0.02 g/kg
Procedure: Mobile phase: Na2HPO4 (100 mmol/L), TMACl (0.5 mmol/L), OSA (2.0 mmo/L), MB reagent (0.005% v/v), diluted with redistilled water, 85% PH was adjusted to8.00 by H3PO4, filtered by 0.22 μm aqueous membrane.
Chromatographic conditions: ESA582 type binary pump system, ESA ACH-3 column (150×3 mm 5 μm I.D.), former ESA immobilized enzyme reactor before columns (ESA ACH-SPR, 3 cm), flow rate, 0.35 mL/min, column temperature, 35° C.
Test conditions: 5600 A electrochemical detector; 5040 type solid porous electrode (platinum working electrode, a solid state palladium reference electrode) potential: +300 mV.
The results were analyzed statistically (t test).

VaD rats = assay: MORRIS water maze in VaD rats (permanent ligation of bilateral common carotid artery); type: in vivo, SD rats
Procedure: as §5

[9] = ischemia-reperfusion + D-galactose mice, compositions 4 g/kg, Huperzine 0.00008 g/kg, Tanakan 0.03 g/kg

Work on `CC(=O)Oc1ccccc1C(=O)O` [Aspirin] yielded a Platelet aggregation ([1]; rats dosed 7 days (compositions 3 g/kg, aspirin 0.0044 g/kg), PRP) of 23.27 ± 3.06 %, an aggregation inhibition rate ([1]; rats dosed 7 days, versus control group) of 49.57% and an inhibition at 4.4 mg/kg (thrombosis of rats; Rattus norvegicus, 168 h, 7 days, versus control group, read-out: Inhibition rate (thrombosis)) of 30.9%. The “Wet weights of thrombus” value (thrombosis of rats; once a day 7 days, artery-vein shunt 20 minutes) was 0.056 ± 0.011 g.
In the case of `C/C=C1\[C@H]2C=C(C)C[C@]1(N)c1ccc(=O)[nH]c1C2` [Huperzine, huperzine A], the “number of errors Within 5 min” value [2] is reported as 0.6 ± 0.9, the “the incubation period Within 5 min” value [2] is reported as 243.1 ± 38.4 s and the “The incubation time Within 5 min” value [3] is reported as 229.1 ± 94.6 s. The “number of errors Within 5 min” value [3] was 0.5 ± 0.7, the “number of errors Within 5 minutes” value [4] was 0.6 ± 0.6 and the “the incubation period Within 5 minutes” value [4] was 281.6 ± 39.4 s. The “Length of path (MORRIS water maze)” value [5, 9] was 355.8 ± 234.1 cm, the “Time of duration (MORRIS water maze)” value [5, 9] was 21.7 ± 14.6 s and the “Search strategy (MORRIS water maze)” value ([5]; score: straight line type 1 point, tendency type 2, edge type 3, random type 4, mice) was 2.4 ± 1.0 points. It also gave an MDA (SOD, MDA of brain tissue) of 2.194 ± 0.251 μmol/mgprot, an SOD (SOD, MDA of brain tissue) of 51.7 ± 9.6 U/mgprot and an NPγ (plasma NPY, β-EP) of 847.7 ± 189.1 pg/mL. For the same compound, the β-EP (plasma NPY, β-EP) was 1032.9 ± 109.5 pg/mL, the “Pathological examination: arrangement of the hippocampal pyramidal cells” value [6] was “slightly loose” and the GSH-Px [7] was 28.58 ± 2.87 U/mgprot. The MDA [7] was 4.651 ± 0.832 nmol/mgprot, the NO [7] was 1.442 ± 0.295 nmol/mgprot and the SOD [7] was 159.8 ± 21.2 U/mgprot. For the same compound, the Ach [8] was 1992.6 ± 590.0 ng/g wet weight of brain tissue, the “time of duration in MORRIS water maze, 2 months after the model was created” value (VaD rats; 1 month of administration, compositions 3 g/kg, Huperzine 0.00006 g/kg, Tanakan 0.02 g/kg) was 24.6 ± 19.0 s and the “time of duration in MORRIS water maze, 3 months after the model was created” value (VaD rats; 2 months of administration, compositions 3 g/kg, Huperzine 0.00006 g/kg, Tanakan 0.02 g/kg) was 9.0 ± 5.2 s. For the same compound, the “time of duration in MORRIS water maze, 1 month after the model was created” value (VaD rats; before administration) was 58.6 ± 26.6 s.
